# Assay results as given in patent US20070213291A1, “Therapeutically useful synthetic oligonucleotides” (priority 1999, published 2007).
# Columns and labels:
# [1] = test system: SK-OV-3 human ovarian cancer cells; test: Inhibition of SK-OV-3 cell proliferation (MTT); type: cell-based; conditions: 100 μg/ml, 48 h, 5×10^5 cells/ml
# Method: (§1) Cells were seeded in 6 (1 ml/well), 24 (0.5 ml/well) or 96 (0.1 ml/well) well flat-bottom microplates and were maintained at 37° C. in a 5% CO2 atmosphere. Unless stated otherwise, 2.5×10^5 cells/ml were incubated with 0 μg/ml (control) and 100 μg/ml (treated) of 2 to 45 base sequences containing A, C, G and T for 48 h.
# (§2) Cell proliferation was measured using dimethylthiazol-diphenyl-tetrazolium (MTT) reduction (Mosman et al. J. Immunol. Methods 65:55, 1983). MTT was measured at a wavelength of 570 nm using a multiplate spectrophotometer reader (ELX800, Bio-TEK Instruments Inc., Winooski, Vt.).
# SK-OV-3 ovarian cancer cells are a p53 mutated, p21/waf-1/Cip deleted, p15^ink4B deleted, p16^Ink4 deleted, metastatichuman solid tumor model. SK-OV-3 cells (5×10^5 cells/ml) were incubated with 2, 6 and 18 base GT sequences (Table 12).
# [2] = test system: caspase 7; test: Caspase 7 activation by Western blot; type: cell-based, human; conditions: Jurkat, 72 h, 100 μg/ml (FIG. 3B)
# Method: Jurkat T cell leukemia cells were incubated for 72 h with 6 base GT SEQ ID NO:25. The cells were washed 3× with PBS, lysed with 10 mM HEPES, pH 7.5 containing 5 mM MgCl2, 1 mM dithiothreitol, 1.5 nM aprotinin, 10 mM leupeptin and 2.5 μm Na orthovanadate, and the protein content of the lysate was determined (Bradford J. Anal. Biochem. 72:248, 1976).
# Activated caspase 7 and PARP cleavage were detected by Western blot analysis. Lysate was mixed with Laemmli buffer (Laemmli U. Nature […], 1970), shaken, and heated at 100° C. for 4 min. […] The separated proteins were electroblotted onto a PVDF membrane. Equal protein loading was monitored by Ponceau red staining of the membrane.
# The membrane was blocked overnight at 4° C. with a buffer containing 1% Tris-buffered saline (2 mM Tris-HCl, 13.7 mM NaCl, pH 7.6, and 0.1% polyethylenesorbitan monolaurate (TWEEN 20) (TBST) +5% non-fat dry milk. The membrane was washed and was incubated for 1 h at RT with a mouse monoclonal IgG anti-caspase 7 antibody (Pharmingen) (diluted 1:1000 in TBST+1% BSA) or with a mouse monoclonal IgG anti-PARP antibody (diluted 1:1000 in TBST+1% BSA) (Pharmingen). IgG bound to caspase 7 or to PARP was detected with sheep anti-mouse IgG conjugated to horseradish peroxidase (diluted 1:1000 in TBST+5% non-fat dry milk) (Pharmingen). […]
# [3] = test system: Jurkat human leukemia T cells; test: Intracellular calcium (Fluo-3-AM fluorescence); type: cell-based; conditions: 24 h, 100 μg/ml
# Method: Increases in intracellular calcium (Ca^2+)i are reported to be associated with apoptosis induction (Lam et al. Mol. Endocrinol. 7:686, 1993). (Ca^2+)i was followed using the fluorescent probe Fluo-3-AM (Cell Permaant, Molecular Probes, Inc., Eugene, Oreg.). An increase in Fluo-3-AM fluorescence is indicative of an increase in (Ca^2+)i.
# Jurkat human leukemia T cells were incubated for 24 h with 6 base GT SEQ. NO:25. Cells were collected by centrifugation, suspended in PBS containing 1% FBS and loaded with 10 μM Fluo-3-AM for 1 h at 37° C. Cell fluorescence was measured at 488 nm excitation and 530 nm emission (FL1 detector). Data were analyzed on a FACSCALIBUR using the program CellQUEST (Becton Dickinson).
# [4] = test system: L-1210 murine leukemia cells; test: Inhibition of L-1210 cell proliferation; type: cell-based
# Method: as §1, §2
# [5] = test system: caspase 3; test: Caspase 3 activation, colorimetric (p-nitroanilide peptide cleavage); type: cell-based, human; conditions: Jurkat, 72 h, 100 μg/ml
# Method: To determine caspase activation, control and treated cells are washed, fixed, permeabilized and incubated with an FITC-conjugated antibody that recognizes the active form of the caspase (Pharmingen, San Diego, Calif.) using the conditions recommended by the manufacturer. Fluorescence associated with active caspase 3 is analyzed by flow cytometry on a FACSCALIBUR using the program CellQUEST (Becton Dickinson). Alternatively, caspase activation is determined colorimetrically using an assay based on the cleavage of a caspase-specific peptide conjugated to the color reporter molecule p-nitroanilide, which can be quantitated spectrophotometrically at a wavelength of 405 nm.
# Jurkat T cell leukemia cells were incubated for 72 h with 33 base GT SEQ ID NO:66; 11 base GT SEQ ID NO:81 (bases 1-11 of GT SEQ ID NO:66), 11 base GT SEQ ID NO:82 (bases 12-22 of GT SEQ ID NO:66), 11 base GT SEQ ID NO:83 (bases 23-33 of GT SEQ ID NO:66) and 15 base ACG SEQ ID NO:67. Active caspase 3 (17-22 kDa) was determined using FITC conjugated antibody (Clone: C92-605) as in Example 28.
# Caspase 3 activation also was determined colorimetrically as in Example 28.
# Jurkat T cell leukemia cells were incubated for 72 h with 6 base GT SEQ ID NO:25. Caspase 3 activation was determined colorimetrically as in Example 28.
# [6] = test system: MCF-7 human breast cancer cells; test: MCF-7 human breast tumor xenografts in female nude BALB/c mice; type: in vivo; conditions: after 4 weeks of treatment, compared with other groups (group 1 saline)
# Method: MCF-7 human breast cancer cells are implanted subcutaneously as xenografts, in female nude BALB/c mice. The mice are divided into 6 groups of 10 mice. […] After 4 weeks of treatment, the mice are sacrificed and tumor mass is determined.
# [7] = test system: MCF-7 human breast cancer cells; test: Cell cycle stage in MCF-7 cells (propidium iodide flow cytometry); type: cell-based; conditions: MCF-7, 5×10^5 cells/ml, 24 h
# Method: Cell cycle stage was determined using a […]™ PLUS DNA commercial kit (Becton Dickinson). Briefly, nuclei from cells were obtained by dissolving the cell membrane in a nonionic detergent, eliminating the cell cytoskeleton and nuclear proteins with trypsin, digesting the cellular RNA with RNase and stabilizing the nuclear chromatin with spermine. Propidium iodide was added to the cell nuclei and their fluorescence was analyzed in a flow cytometer equipped with electronic doublet discrimination capability (FACSCalibur, Becton Dickinson, San Jose, Calif.). Accumulation of cells in G0/G1, early S (SE), mid S (SM), late S (SL) or G2/M phases of the cell cycle was analyzed using MODFIT LT software (Verity Software House Inc., Topsham, Mass.).
# Exponentially growing Jurkat human leukemia T cells (Table 28) and MCF-7 human breast cancer cells (5×10^5 cells/ml) (Table 29) were incubated for 24 h with 2, 6, 15, 18, 27 and 45 base sequences containing A, C, G and T. The cells were collected and centrifuged and cell cycle stage was determined.
sequence,measurement,setting,value
GGGTGG [SEQ ID NO:25],% INHIBITION of SK-OV-3 human ovarian cancer cell proliferation,[1],12%
same,processing of inactive pro-caspase 7 to active caspase 7,[2],induced processing of inactive pro-caspase 7 (30 kDa) to active caspase 7 (19-20 kDa)
same,"increase in cell fluorescence (Fluo-3-AM), indicative of (Ca2+)i",[3],88%
same,% inhibition of L-1210 murine cancer cell proliferation,[4],8%
same,caspase 3 activity greater than in control cells,[5],323%
same,tumor mass,[6],less tumor mass than group 1 mice
same,% cells in phase: G0/G1,[7],21.9%
same,% cells in phase: G2/M,[7],17.4%
same,% cells in phase: SE,[7],27.6%
same,% cells in phase: SL,[7],10.9%
same,% cells in phase: SM,[7],22.2%
same,Arrest (cell cycle),[7],End SM
